Assay results from patent US20220324809A1, “ATP-REGULATED POTASSIUM CHANNEL OPENERS AND USES THEREOF” (SALZMAN GROUP LTD., priority 2019, published 2022).

What was measured:
Type in all cases: in vivo, Sprague-Dawley rats
MCT-induced PH [1] = assay: Prophylactic daily IP R-1703 in rat model of MCT-induced PH; conditions: 50 micrograms per kg IP daily, measured 28 days post-MCT, p<0.001, FIG. 4
Description: Sprague-Dawley rats (n=3 per group) were treated with a single SC injection of MCT with 60 mg/kg or an equivalent volume of saline (2 mL/kg). Rats were then treated daily with 50 micrograms per kg of R-1703 by an intraperitoneal (IP) route of administration. After a post-MCT period of 28 days wherein vehicle control treated rats develop severe and stable PH, rats were anesthetized and endotracheally intubated.

MCT-induced PH [2] = assay: Intratracheal aerosolized R-1703 in rat treatment model of MCT-induced PH: sustained effect
Description: Intratracheal aerosolized R-1703 is effective in a rodent treatment model of MCT-induced PH: Sustained effect. 28 days after injection of MCT (60 mg/kg SC) and development of severe and stable PH, mechanically ventilated and anaesthetized Sprague-Dawley rats were dosed IT with aerosolized solution (2.0 mL) delivering 0.6, 6.0, or 30 micrograms per kg of R-1703 in PBS. Vehicle controls received an equivalent volume of PBS. MCT induced a large increase in MPAP.

MCT-induced PH [3] = assay: Intratracheal aerosolized R-1703 in rat treatment model of MCT-induced PH: acute effect
Description: Intratracheal (IT) aerosolized R-1703 is effective in a rodent treatment model of MCT-induced PH: Acute effect. 28 days after injection of MCT (60 mg/kg SC) and development of severe and stable PH, mechanically ventilated and anaesthetized Sprague-Dawley rats were dosed IT with aerosolized solution (2.0 mL) containing 500 or 5000 ng/mL of R-1703 in PBS. Vehicle controls received an equivalent volume of PBS. MCT induced a large increase in MPAP.

MCT-induced PH [4] = assay: Single IV administration of R-1703 in rat treatment model of MCT-induced PH (acute and sustained effect)
Text: An established rat model for PH utilizes monocrotaline (MCT), a toxin derived from plants of the Crotalaria species, which causes pulmonary arterial endothelial cell injury and subsequent pulmonary artery smooth muscle hypertrophy. This model serves as a tool for assessing an immediate vasorelaxation effect by monitoring real-time right ventricular pressure in rats with PAH (late intervention regimen), as well as assessment of efficacy in a prevention of vascular remodeling progression (early intervention regimen). In the latter mode, weight ratios of left and right ventricles and histopathological assessment of right ventricular hypertrophy are used to evaluate the extent of fibrosis. R-1703 is effective in acutely treating a rodent model of MCT-induced PH. Sprague-Dawley rats (n=3 per group) were treated with a single subcutaneous (SC) injection of MCT with 60 mg/kg or an equivalent volume of saline (2 mL/kg). After a post-MCT period of 28 days wherein rats developed severe and stable PH, rats were anesthetized and endotracheally intubated, followed by a single intravenous (IV) administration of R-1703 (15, 30, 60, and 90 μg/kg, in PBS) via the tail vein. Vehicle controls received an equivalent volume of PBS. MCT induced a large increase in MPAP (from 25 to 50 mmHg). […] The experiments shown below have been repeated three times and are reproducible.

[5] = IT aerosol 0.6, 6.0 or 30 micrograms per kg

With `CCC(C)(C)N/C(=N\C#N)Nc1cncc(C(=O)NCCO)c1` [R-1703] the “restoration of normal pressures (MPAP)” value (MCT-induced PH [1]) was 80%, the “effect on heart rate” value (MCT-induced PH [2]; [5]) was “no effect” and the “effect on peripheral blood pressure” value (MCT-induced PH [2]; [5]) was “no effect”. For the same compound, the “effect on MCT-induced elevation in MPAP” value (MCT-induced PH [2]; IT aerosol delivering 0.6, 6.0 or 30 micrograms per kg, sustained effect, p<0.001, FIG. 3) was “dose-dependently reduced the MCT-induced elevation in MPAP”, the “effect on heart rate” value (MCT-induced PH [3]; IT aerosol 500 or 5000 ng/mL) was “no effect” and the “effect on peripheral blood pressure” value (MCT-induced PH [3]; IT aerosol 500 or 5000 ng/mL) was “no effect”. For the same compound, the “effect on MCT-induced elevation in MPAP” value (MCT-induced PH [3]; IT aerosolized solution 2.0 mL, 500 or 5000 ng/mL, acute effect, p<0.001, FIG. 2) was “dose-dependently reduced the MCT-induced elevation in MPAP”, the “effect on heart rate” value (MCT-induced PH [4]; IV 15-90 μg/kg) was “no effect” and the “effect on peripheral blood pressure” value (MCT-induced PH [4]; IV 15-90 μg/kg) was “no effect”. The “persistence of effect on MPAP post dose” value (MCT-induced PH [4]; IV, FIG. 1B) was “at least 24 h”, the “persistence of effect on MPAP after administration” value (MCT-induced PH [4]; IV, FIG. 1B legend) was “at least 24 hours” and the “effect on MCT-induced elevation in MPAP” value (MCT-induced PH [4]; single IV 15, 30, 60, 90 μg/kg in PBS, 28 days post-MCT) was “dose-dependently reduced the MCT-induced elevation in MPAP”. For the same compound, the “restoration of normal pressures (MPAP)” value (MCT-induced PH [4]; single IV dose 90 μg/kg, 28 days post-MCT, p<0.000005, FIG. 1A) was 100%.
